Measurements published in PMC11067372, “Evaluation of the antiplasmodial efficacy of synthetic 2,5-diphenyloxazole analogs of compounds naturally derived from Oxytropis lanata” (International Journal for Parasitology: Drugs and Drug …, 2024).
Read-outs that look alike come from different tables or passages of the source.

Assays:
P. falciparum 3D7 [1] = test: Stage-specific microscopy examination (ring, trophozoite, schizont); assay type: cell-based, Plasmodium falciparum; details: ring, trophozoite, schizont stages, artemisinin and chloroquine at all concentrations, Compounds 31 and 32 at 100 times IC50
Procedure: (§1) To ensure uniformity, the parasites underwent a rigorous synchronization process using a two-step sorbitol treatment procedure. This synchronized parasite population was harnessed within a 2-h window for the ring stage, 8–10 h for the trophozoite stage, and 24–26 h for the schizont stage. Subsequent to sorbitol treatment, early trophozoites could be obtained within 6–8 h after the initial sorbitol treatment (within 20 h of development), while early schizonts could be obtained after an additional 16 h of incubation (within 36 h of development). Beyond 36 h, the schizonts mature, causing the rupture of red blood cells (RBCs) and the consequent release of merozoites, which promptly infect new RBCs.
The negative control group consisted of cultures treated solely with complete medium and was designated the no treatment (NT) group. This analysis was repeated three times at each concentration. Following a 24-h incubation period, the culture in a 96-well plate was centrifuged at 1300 g for 5 min to settle down the iRBC; then, the supernatants were removed, and the iRBCs were washed with fresh media at the same volume as the initial culture. The centrifugation and washing were repeated 3 times, allowing the compound to be diluted by approximately 1000 times. Subsequently, thin blood smears from each treatment group were prepared using 1 μL of settled iRBCs. The proportion of parasites affected by the drug, including those with both abnormal and retained morphologies, was calculated by examining 100 parasites and counting the number displaying irregular development. Subsequently, the number of abnormal parasites was divided by the total count and then multiplied by 100 to obtain a percentage. The parameters used to define normal and abnormal morphologies can be found in Table S3 and Fig. S1.

P. falciparum 3D7 [2] = test: IC50 speed assay (24, 48, 72 h); assay type: cell-based, Plasmodium falciparum; details: for Speed of action (IC50 speed assay): IC50 at 24, 48, 72 h compared; for IC50: Plasmodium falciparum
Procedure: (§2) The D-sorbitol method (CAS: 50-70-4, Wako, Osaka, Japan) was employed to synchronize parasites, resulting in the attainment of ≥90% ring-stage parasites. These synchronized parasites were then utilized for the experiments within a 2-h window. The assay was performed as follows. First, 50 μL of synchronized parasites with 0.5% parasitemia and 2% hematocrit were added to individual wells of a 96-well plate. Then, 50 μL of the test compounds was introduced to each well. […] Wells containing only test compounds and erythrocytes were included for background correction. […] After the designated incubation time, 100 μL of lysis buffer containing 0.02% (v/v) SYBR Green I was added to each well, the contents of the well were mixed by pipetting, and the plate was incubated in the dark at room temperature for 2 h. […] This assay was repeated four times at each concentration, and the resulting inhibitory values represent the average from three independent trials.

P. falciparum 3D7 [3] = test: Stage-specific assay on ring and schizont stages (SYBR Green I, 24 h); assay type: cell-based, Plasmodium falciparum; details: eight concentrations from 100-fold IC50
Procedure: as §1
Wells containing only the test compounds and erythrocytes were included to correct for background activity. The 96-well plates were incubated for 24 h at 37 °C in an atmosphere of 5% CO2 and 5% O2. The growth of P. falciparum 3D7 was detected using a SYBR Green I-based fluorescence assay.

P. falciparum K1 = test: In vitro inhibition of P. falciparum K1 (SYBR Green I-based fluorescence assay); assay type: cell-based; details: Plasmodium falciparum, read-out: IC50 P. falciparum K1
Procedure: (§3) The cultures were maintained in an incubator under specific conditions: 37 °C under 5% CO2 and 5% O2.
as §2
(§4) The IC50 or CC50 values were determined from three independent experiments by plotting the logarithmic concentration of the compound against the percent parasite inhibition or cell growth inhibition, respectively. Nonlinear regression analysis was conducted using GraphPad Prism 10 (GraphPad Software, Inc., La Jolla, CA, USA). Comparisons between groups were evaluated using either one-way or two-way ANOVA followed by Tukey's or Fisher's multiple comparisons tests. […] The meaning of each symbol is specified in the corresponding figure legend alongside the name of the employed test.

[4] = In vitro toxicity to human cells (cell viability assay); assay type: cell-based; details: human foreskin fibroblasts (HFFs), average ± SD, three independent experiments
Procedure: HFF cells are selected for cytotoxicity testing in this study, providing a physiologically relevant model for the evaluation of drug interactions with human cells. […] This designation makes them a suitable model for the investigation of cellular processes and their sensitivity to toxic substances, which is crucial for the early identification of potential adverse effects of drugs during the development process.
The IC50 or CC50 values were determined from three independent experiments by plotting the logarithmic concentration of the compound against the percent parasite inhibition or cell growth inhibition, respectively. Nonlinear regression analysis was conducted using GraphPad Prism 10 (GraphPad Software, Inc., La Jolla, CA, USA). Comparisons between groups were evaluated using either one-way or two-way ANOVA followed by Tukey's or Fisher's multiple comparisons tests. A p-value of <0.05 was considered to indicate statistical significance and is denoted by an asterisk or a symbol. The meaning of each symbol is specified in the corresponding figure legend alongside the name of the employed test.

P. yoelii 17XNL = assay type: in vivo; details: P. yoelii 17XNL-infected mice; 20 mg/kg/day
Procedure: Male C57BL/6 mice, aged eight weeks, were obtained from Japan CLEA (Tokyo, Japan) and housed with six per cage in each group. These mice were kept under conditions of 24 °C, 50% relative humidity, and a light-dark cycle of 8 a.m. to 8 p.m. Access to drinking water and food (CLEA Rodent Diet CE-2; Japan CLEA, Tokyo, Japan) was unrestricted. Prior to experimentation, P. yoelii 17XNL was recovered from cryopreserved erythrocyte stocks via passage in mice. […]. Parasitemia levels were evaluated […] by collecting 2 μL of blood from the mouse tail for thin blood smear preparation. Treatment was initiated upon reaching a parasitemia level of 1%. […]. Parasitemia in infected mice was observed daily by preparing Giemsa-stained thin blood smears (up to 30 dpi). Hematocrit levels were measured every other day using a Celltac-α MEK-6550 (Nihon Kohden, Tokyo, Japan), with 10 μL of blood collected from the mouse tail for each assessment. The animals were handled and treated in accordance with the Guide for the Care and Use of Laboratory Animals by the Ministry of Education, Culture, Sports, Science, and Technology, Japan. Ethical permission for the animal experiment protocols was secured under permit numbers 21–35 and 23–90 from the ethical committee of Obihiro University of Agriculture and Veterinary Medicine.
The median point within this range was selected to maintain a balance between efficacy and safety. Furthermore, a modified Peter's suppression test was utilized to assess the efficacy of antimalarial drugs ([Ager, 1984]; [Peters et al., 1975]). The treatment and observation period were initially set for 4 days. […] […]. […] These findings highlight the effect of the 20 mg/kg/day dosage of Compounds 31 and 32 in reducing parasitemia without causing side effects.

P. falciparum 3D7 [5] = test: In vitro inhibition of P. falciparum 3D7 (SYBR Green I-based fluorescence assay); assay type: cell-based, Plasmodium falciparum; details: Plasmodium falciparum, 3D7, 72 h, read-out: IC50 P. falciparum 3D7
Procedure: as §3, §2, §4

SMILES	Parasite morphology after 24 h treatment (P. falciparum 3D7 [1])	Speed of action (IC50 speed assay) (P. falciparum 3D7 [2]; P. falciparum 3D7)	IC50 (P. falciparum 3D7 [2]; P. falciparum 3D7, 24 h incubation, read-out: IC50 24 h)	IC50 (P. falciparum 3D7 [2]; P. falciparum 3D7, 48 h incubation, read-out: IC50 48 h)	Stage specificity (ring and schizont stages) (P. falciparum 3D7 [3])	IC50 (P. falciparum K1; multidrug-resistant strain K1, 72 h incubation, average ± SD, three independent experiments)	CC50 [4]	IC50 (P. falciparum 3D7 [2]; 3D7, 24 h, read-out: IC50 24 h)	IC50 (P. falciparum 3D7 [2]; 3D7, 48 h, read-out: IC50 48 h)	IC50 (P. falciparum 3D7 [2]; 3D7, 72 h, read-out: IC50 72 h)	Treatment duration required to decrease the parasitemia levels from the peak of infection (P. yoelii 17XNL)	IC50 (P. falciparum 3D7 [5])	IC50 (P. falciparum K1; K1, 72 h)
C[C@@H]1CC[C@H]2[C@@H](C)C(=O)O[C@@H]3O[C@@]4(C)CC[C@@H]1[C@]32OO4 [Artemisinin, artemisinin, reference compound]	death and shrinkage of the parasite at all stages	fast-acting	37 ± 5 nM	23 ± 2 nM	potency against ring and schizont stages	19 ± 2 nM	153000 ± 30800 nM						
CCN(CC)CCCC(C)Nc1ccnc2cc(Cl)ccc12 (stereo not shown) [Chloroquine (diphosphate), chloroquine diphosphate, reference compound]	death and shrinkage of the parasite at all stages	fast-acting			potency against ring and schizont stages			46 ± 3 nM	22 ± 4 nM	26 ± 4 nM	7 days	26 ± 3 nM	784 ± 73 nM
